Residues, ends and D or L forms follow the SMILES beside them.
Assay: Ratio of orexin-1 receptor to orexin-2 receptor in human

Row | Ratio | Compound
1 | > 375 | CC[C@H](C)[C@H](NC(=O)CNC(=O)[C@H](C)NC(=O)[C@H](C)NC(=O)[C@H](Cc1c[nH]cn1)NC(=O)[C@H](CC(N)=O)NC(=O)CNC(=O)[C@H](CO)NC(=O)[C@H](C)NC(=O)[C@H](CCC(N)=O)NC(=O)[C@H](CC(C)C)NC(=O)[C@H](CC(C)C)NC(=O)[C@H](CCCN=C(N)N)NC(=O)[C@H](CCC(N)=O)NC(=O)[C@H](CC(C)C)NC(=O)[C@H](CCCN=C(N)N)NC(=O)CNC(=O)[C@H](CCC(N)=O)NC(=O)[C@H](CC(C)C)NC(=O)CN)C(=O)N[C@@H](CC(C)C)C(=O)N1CCC[C@H]1C(=O)N[C@@H](CCSC)C(=O)O (H-GLQGRLQRLLQASGNHAAGILPM-OH)
2 | 5.5 | CC[C@H](C)[C@H](NC(=O)CNC(=O)[C@H](C)NC(=O)[C@H](C)NC(=O)[C@H](Cc1c[nH]cn1)NC(=O)[C@H](CC(N)=O)NC(=O)CNC(=O)[C@H](CO)NC(=O)[C@H](C)NC(=O)[C@H](CCC(N)=O)NC(=O)[C@H](CC(C)C)NC(=O)[C@H](CC(C)C)NC(=O)[C@H](CCCN=C(N)N)NC(=O)[C@H](CCC(N)=O)NC(=O)[C@H](CC(C)C)NC(=O)[C@H](CCCN=C(N)N)NC(=O)CNC(=O)[C@H](CCC(N)=O)NC(=O)[C@H](CC(C)C)NC(=O)[C@H](C)N)C(=O)N[C@@H](CC(C)C)C(=O)N[C@H](C(=O)N[C@@H](CCSC)C(=O)O)[C@@H](C)O (H-ALQGRLQRLLQASGNHAAGILTM-OH)
3 | 8.6 | CC[C@H](C)[C@H](NC(=O)CNC(=O)[C@H](C)NC(=O)[C@H](C)NC(=O)[C@H](Cc1c[nH]cn1)NC(=O)[C@H](CC(N)=O)NC(=O)CNC(=O)[C@H](CO)NC(=O)[C@H](C)NC(=O)[C@H](C)NC(=O)[C@H](CC(C)C)NC(=O)[C@H](CC(C)C)NC(=O)[C@H](CCCN=C(N)N)NC(=O)[C@H](CCC(N)=O)NC(=O)[C@H](CC(C)C)NC(=O)[C@H](CCCN=C(N)N)NC(=O)CNC(=O)[C@H](CCC(N)=O)NC(=O)[C@H](CC(C)C)NC(=O)CN)C(=O)N[C@@H](CC(C)C)C(=O)N[C@H](C(=O)N[C@@H](CCSC)C(=O)O)[C@@H](C)O (H-GLQGRLQRLLAASGNHAAGILTM-OH)
4 | 6.8 | CC[C@H](C)[C@H](NC(=O)CNC(=O)[C@H](C)NC(=O)[C@H](C)NC(=O)[C@H](Cc1c[nH]cn1)NC(=O)[C@H](CC(N)=O)NC(=O)CNC(=O)[C@H](CO)NC(=O)[C@H](C)NC(=O)[C@H](CCC(N)=O)NC(=O)[C@H](CC(C)C)NC(=O)[C@H](CC(C)C)NC(=O)[C@H](CCCN=C(N)N)NC(=O)[C@H](CCC(N)=O)NC(=O)[C@H](CC(C)C)NC(=O)[C@H](CCCN=C(N)N)NC(=O)CNC(=O)[C@H](C)NC(=O)[C@H](CC(C)C)NC(=O)CN)C(=O)N[C@@H](CC(C)C)C(=O)N[C@H](C(=O)N[C@@H](CCSC)C(=O)O)[C@@H](C)O (H-GLAGRLQRLLQASGNHAAGILTM-OH)
5 | > 230 | CC[C@H](C)[C@H](NC(=O)CNC(=O)[C@H](C)NC(=O)[C@@H]1CCCN1C(=O)[C@H](Cc1c[nH]cn1)NC(=O)[C@H](CC(N)=O)NC(=O)CNC(=O)[C@H](CO)NC(=O)[C@H](C)NC(=O)[C@H](CCC(N)=O)NC(=O)[C@H](CC(C)C)NC(=O)[C@H](CC(C)C)NC(=O)[C@H](CCCN=C(N)N)NC(=O)[C@H](CCC(N)=O)NC(=O)[C@H](CC(C)C)NC(=O)[C@H](CCCN=C(N)N)NC(=O)CNC(=O)[C@H](CCC(N)=O)NC(=O)[C@H](CC(C)C)NC(=O)CN)C(=O)N[C@@H](CC(C)C)C(=O)N[C@H](C(=O)N[C@@H](CCSC)C(=O)O)[C@@H](C)O (H-GLQGRLQRLLQASGNHPAGILTM-OH)

From ChEMBL document CHEMBL1148480, “Structure-activity studies of orexin a and orexin B at the human orexin 1 and orexin 2 receptors led to orexin 2 receptor selective and orexin 1 receptor preferring ligands” (J Med Chem, 2004)
